One test addresses PI3K-γ (Homo sapiens, UniProt P48736). Description: PI3K-gamma fluorescence polarization assay. The settings on record: read-out: IC50 PI3Kγ.
Another test addresses PI3K-α (Homo sapiens, UniProt P42336). Description: PI3K-alpha fluorescence polarization assay. The settings on record: read-out: IC50 PI3Kα. In general terms: Polarisation of emitted light reports the rotation of a fluorescent probe.
The subject of test [1] is human breast MDA-MB-361 tumor cell line. Briefly: In vitro cell culture growth assay (MTS), MDA-MB-361. In kind it is cell-based. The settings on record: Homo sapiens, MDA-MB-361, 72 h, MTS cell growth assay, three days after drug treatment, read-out: IC50 MDA-MB-361.
In test [2] the test system is human prostate PC3-mm2 tumor cell line. Briefly: In vitro cell culture growth assay (MTS), PC3-mm2. In kind it is cell-based. The settings on record: Homo sapiens, PC3MM2, 72 h, MTS cell growth assay, three days after drug treatment, read-out: IC50 PC3-mm2. Background: Tetrazolium dyes change colour on reduction, which living cells bring about.
In a further test the target is Human mTOR (FLAG-TOR) (Homo sapiens, UniProt P42345). Briefly: mTOR kinase assay (DELFIA format, purified enzyme). In kind it is biochemical. The settings on record: read-out: IC50 mTOR.
Chain of Human mTOR (FLAG-TOR) (P42345 1360-2549 limits assumed): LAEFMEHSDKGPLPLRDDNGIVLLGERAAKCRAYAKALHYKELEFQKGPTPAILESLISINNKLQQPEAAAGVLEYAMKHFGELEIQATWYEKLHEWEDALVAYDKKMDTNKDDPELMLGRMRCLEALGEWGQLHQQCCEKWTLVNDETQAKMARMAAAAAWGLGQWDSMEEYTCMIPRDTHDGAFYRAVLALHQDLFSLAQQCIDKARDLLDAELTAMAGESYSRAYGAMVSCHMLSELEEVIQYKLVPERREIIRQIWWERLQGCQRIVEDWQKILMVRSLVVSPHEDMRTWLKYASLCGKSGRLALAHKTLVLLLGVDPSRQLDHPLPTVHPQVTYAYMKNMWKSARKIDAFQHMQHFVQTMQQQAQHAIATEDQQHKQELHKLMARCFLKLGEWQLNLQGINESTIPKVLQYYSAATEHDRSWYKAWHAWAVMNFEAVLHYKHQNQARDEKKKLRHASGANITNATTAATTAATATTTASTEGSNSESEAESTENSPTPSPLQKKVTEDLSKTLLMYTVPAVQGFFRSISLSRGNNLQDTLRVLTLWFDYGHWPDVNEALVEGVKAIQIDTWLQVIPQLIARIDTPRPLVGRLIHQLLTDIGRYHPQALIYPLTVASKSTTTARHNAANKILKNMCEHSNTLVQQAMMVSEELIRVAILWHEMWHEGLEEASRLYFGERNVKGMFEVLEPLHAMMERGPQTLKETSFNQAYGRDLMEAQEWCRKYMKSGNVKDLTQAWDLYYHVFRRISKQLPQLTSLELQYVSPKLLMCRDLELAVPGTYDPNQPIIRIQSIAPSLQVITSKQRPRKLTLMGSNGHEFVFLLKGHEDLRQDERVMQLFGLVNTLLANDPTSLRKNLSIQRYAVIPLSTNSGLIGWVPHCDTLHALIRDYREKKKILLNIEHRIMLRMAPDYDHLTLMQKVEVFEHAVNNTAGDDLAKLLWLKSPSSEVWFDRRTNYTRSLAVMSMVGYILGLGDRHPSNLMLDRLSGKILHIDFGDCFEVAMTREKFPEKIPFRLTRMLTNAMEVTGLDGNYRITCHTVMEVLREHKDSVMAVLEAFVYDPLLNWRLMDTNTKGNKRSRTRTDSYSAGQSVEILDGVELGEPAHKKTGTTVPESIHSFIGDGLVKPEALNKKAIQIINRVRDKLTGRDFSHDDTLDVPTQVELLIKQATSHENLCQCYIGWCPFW

Values joined by “and” are separate entries in the source; they are usually repeats but may differ in a detail not shown here. Identical values can stand only once. Like-named read-outs stand apart in the source and are kept apart here.

Chain of PI3K-γ (P48736 whole entry, species assumed): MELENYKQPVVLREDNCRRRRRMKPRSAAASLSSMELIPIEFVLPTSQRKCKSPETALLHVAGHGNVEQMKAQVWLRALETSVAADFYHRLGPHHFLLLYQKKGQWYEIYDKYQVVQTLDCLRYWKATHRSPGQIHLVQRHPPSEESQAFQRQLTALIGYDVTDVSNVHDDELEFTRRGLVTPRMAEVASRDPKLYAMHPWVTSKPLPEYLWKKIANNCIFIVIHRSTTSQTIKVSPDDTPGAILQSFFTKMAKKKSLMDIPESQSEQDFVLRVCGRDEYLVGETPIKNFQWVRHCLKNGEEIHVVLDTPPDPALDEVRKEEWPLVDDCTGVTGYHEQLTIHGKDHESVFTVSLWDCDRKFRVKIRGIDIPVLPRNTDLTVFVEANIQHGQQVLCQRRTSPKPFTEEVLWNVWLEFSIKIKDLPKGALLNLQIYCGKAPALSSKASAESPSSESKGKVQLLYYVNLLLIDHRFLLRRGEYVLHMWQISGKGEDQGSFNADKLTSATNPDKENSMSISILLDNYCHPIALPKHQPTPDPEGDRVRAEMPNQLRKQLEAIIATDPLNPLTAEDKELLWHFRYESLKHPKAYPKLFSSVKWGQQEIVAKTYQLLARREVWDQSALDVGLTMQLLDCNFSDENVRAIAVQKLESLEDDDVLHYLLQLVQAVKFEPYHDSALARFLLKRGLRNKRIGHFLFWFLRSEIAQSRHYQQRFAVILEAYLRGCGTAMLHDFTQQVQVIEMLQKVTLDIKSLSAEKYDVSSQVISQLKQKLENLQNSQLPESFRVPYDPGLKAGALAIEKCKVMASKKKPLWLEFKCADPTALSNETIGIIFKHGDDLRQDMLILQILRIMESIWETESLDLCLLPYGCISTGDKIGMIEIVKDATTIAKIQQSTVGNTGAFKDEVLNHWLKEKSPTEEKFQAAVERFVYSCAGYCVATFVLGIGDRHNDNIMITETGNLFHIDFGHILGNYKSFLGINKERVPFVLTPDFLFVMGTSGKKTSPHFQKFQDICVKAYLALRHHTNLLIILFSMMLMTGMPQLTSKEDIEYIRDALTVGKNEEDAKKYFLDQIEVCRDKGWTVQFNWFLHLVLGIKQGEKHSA
Chain of PI3K-α (P42336 whole entry, species assumed): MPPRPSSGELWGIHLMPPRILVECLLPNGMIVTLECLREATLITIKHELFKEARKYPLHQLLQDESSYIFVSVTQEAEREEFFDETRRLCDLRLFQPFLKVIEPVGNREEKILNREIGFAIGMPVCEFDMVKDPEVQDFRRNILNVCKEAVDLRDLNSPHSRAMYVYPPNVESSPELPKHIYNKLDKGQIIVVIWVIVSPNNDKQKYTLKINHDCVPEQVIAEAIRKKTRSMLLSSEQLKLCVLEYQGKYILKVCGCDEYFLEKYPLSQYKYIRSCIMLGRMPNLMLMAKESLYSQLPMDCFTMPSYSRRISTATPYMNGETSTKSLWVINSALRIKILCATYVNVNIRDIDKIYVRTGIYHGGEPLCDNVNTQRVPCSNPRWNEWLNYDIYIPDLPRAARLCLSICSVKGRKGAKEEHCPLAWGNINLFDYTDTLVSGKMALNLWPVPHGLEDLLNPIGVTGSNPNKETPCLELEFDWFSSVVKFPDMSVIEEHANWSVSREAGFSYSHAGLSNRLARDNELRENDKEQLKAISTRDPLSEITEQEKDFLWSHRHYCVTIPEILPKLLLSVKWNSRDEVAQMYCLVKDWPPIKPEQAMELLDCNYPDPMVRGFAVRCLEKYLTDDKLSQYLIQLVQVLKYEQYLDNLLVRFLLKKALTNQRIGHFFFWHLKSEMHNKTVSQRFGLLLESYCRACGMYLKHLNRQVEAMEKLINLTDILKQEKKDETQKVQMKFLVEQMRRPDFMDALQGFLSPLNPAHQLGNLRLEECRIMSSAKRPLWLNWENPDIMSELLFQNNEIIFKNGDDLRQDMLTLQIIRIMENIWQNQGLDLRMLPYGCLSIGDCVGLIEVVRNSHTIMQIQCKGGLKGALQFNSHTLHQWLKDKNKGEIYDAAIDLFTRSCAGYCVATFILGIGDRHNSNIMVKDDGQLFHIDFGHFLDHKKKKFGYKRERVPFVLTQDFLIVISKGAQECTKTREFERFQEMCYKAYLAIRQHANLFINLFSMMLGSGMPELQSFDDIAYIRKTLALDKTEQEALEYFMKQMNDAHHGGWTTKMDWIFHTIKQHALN
Chain of PI3K-α (P27986 whole entry partner, species assumed): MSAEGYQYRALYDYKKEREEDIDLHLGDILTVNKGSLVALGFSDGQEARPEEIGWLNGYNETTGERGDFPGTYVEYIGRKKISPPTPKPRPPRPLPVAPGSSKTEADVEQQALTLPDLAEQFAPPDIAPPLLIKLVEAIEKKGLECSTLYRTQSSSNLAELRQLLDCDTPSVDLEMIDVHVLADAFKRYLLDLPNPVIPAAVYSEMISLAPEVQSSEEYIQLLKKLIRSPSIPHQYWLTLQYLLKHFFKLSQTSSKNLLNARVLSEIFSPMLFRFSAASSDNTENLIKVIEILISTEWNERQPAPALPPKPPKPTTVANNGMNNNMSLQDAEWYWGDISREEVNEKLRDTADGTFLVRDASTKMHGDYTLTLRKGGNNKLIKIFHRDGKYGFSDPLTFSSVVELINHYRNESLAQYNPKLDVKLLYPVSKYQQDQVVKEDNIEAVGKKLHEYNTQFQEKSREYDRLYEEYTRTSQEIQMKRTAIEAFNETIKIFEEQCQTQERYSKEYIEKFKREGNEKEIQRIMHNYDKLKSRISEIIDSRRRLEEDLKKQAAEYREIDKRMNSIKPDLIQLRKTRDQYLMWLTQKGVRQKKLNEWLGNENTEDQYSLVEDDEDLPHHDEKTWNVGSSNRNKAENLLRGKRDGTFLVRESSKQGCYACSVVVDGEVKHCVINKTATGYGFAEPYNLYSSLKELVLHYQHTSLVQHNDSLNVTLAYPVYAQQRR

For `CC(O)c1ccc(NC(=O)Nc2ccc(-c3nc(N4CCOCC4)nc(N4C[C@H]5C[C@@H]4CN5C(=O)OC(C)(C)C)n3)cc2)cc1` (stereo partly drawn) [Example 302, tert-butyl-(1R,4R)-5-{4-[4-({[4-(1-hydroxyethyl)phenyl]carbamoyl}amino)phenyl]-6-morpholin-4-yl-1,3,5-triazin-2-yl}-2,5-diazabicyclo[2.2.1]heptane-2-carboxylate], the 50% inhibitory concentration (IC50) – broadly, the concentration at which inhibition is half-maximal – on PI3K-γ was 263 nM; on PI3K-α it was 35 nM; in test [1], 299 nM; in test [2], 539 nM; on Human mTOR (FLAG-TOR), 36 nM.

In the case of `CC(C)c1nc(-c2ccc(NC(=O)Nc3ccc(C(=O)NCCN(C)C)cc3)cc2)nc(N2CCOCC2)n1` [Example 305, N-[2-(dimethylamino)ethyl]-4-[({4-[4-(1-methylethyl)-6-morpholin-4-yl-1,3,5-triazin-2-yl]phenyl}carbamoyl)amino]benzamide], the IC50 amounted to 18 nM on PI3K-γ; 1 nM on PI3K-α; 4 nM in test [1]; 46 nM in test [2]; 0.6 nM on Human mTOR (FLAG-TOR).

In the case of `CC(C)c1nc(-c2ccc(NC(=O)Nc3ccc(C(=O)N(C)CCN(C)C)cc3)cc2)nc(N2CCOCC2)n1` [Example 306, N-[2-(dimethylamino)ethyl]-N-methyl-4-[({4-[4-(1-methylethyl)-6-morpholin-4-yl-1,3,5-triazin-2-yl]phenyl}carbamoyl)amino]benzamide], the concentration for half-maximal inhibition (IC50) on PI3K-γ stood at 19 nM; on PI3K-α it was 1 nM; in test [1], 7 nM; in test [2], 30 nM; at Human mTOR (FLAG-TOR), 2.1 nM.

With `CC(C)c1nc(-c2ccc(NC(=O)Nc3ccc(C(=O)N4CCC(N(C)C)CC4)cc3)cc2)nc(N2CCOCC2)n1` [Example 308, 1-(4-{[4-(dimethylamino)piperidin-1-yl]carbonyl}phenyl)-3-{4-[4-(1-methylethyl)-6-morpholin-4-yl-1,3,5-triazin-2-yl]phenyl}urea], the IC50 at PI3K-γ came to 14 nM; at PI3K-α, 3 nM; in test [1] it was 4 nM; in test [2] it was 53 nM; at Human mTOR (FLAG-TOR) it was 2.9 nM.

As to `CC(C)c1nc(-c2ccc(NC(=O)Nc3ccc(C(=O)Nc4ccncc4)cc3)cc2)nc(N2CCOCC2)n1` [Example 309, 4-[({4-[4-(1-methylethyl)-6-morpholin-4-yl-1,3,5-triazin-2-yl]phenyl}carbamoyl)amino]-N-pyridin-4-ylbenzamide], the IC50 on PI3K-γ came to 95 nM; on PI3K-α, 12 nM; in test [1], 64 nM; in test [2] it was 109 nM; on Human mTOR (FLAG-TOR), 3.5 nM.

Regarding `CC(C)c1nc(-c2ccc(NC(=O)Nc3ccc(C(=O)Nc4cccnc4)cc3)cc2)nc(N2CCOCC2)n1` [Example 310, 4-[({4-[4-(1-methylethyl)-6-morpholin-4-yl-1,3,5-triazin-2-yl]phenyl}carbamoyl)amino]-N-pyridin-3-ylbenzamide], the IC50 on PI3K-γ turned out to be 82 nM; at PI3K-α it was 14 nM; in test [1], 44 nM; in test [2] it was 117 nM; at Human mTOR (FLAG-TOR), 5.9 nM.

On to `CC(C)c1nc(-c2ccc(NC(=O)Nc3ccc(C(=O)NC4CCC4)cc3)cc2)nc(N2CCOCC2)n1` [Example 311, N-cyclobutyl-4-[({4-[4-(1-methylethyl)-6-morpholin-4-yl-1,3,5-triazin-2-yl]phenyl}carbamoyl)amino]benzamide], for which the IC50 on PI3K-γ came out at 125 nM; at PI3K-α it was 40 nM; in test [1] it was 126 nM; in test [2] it was 366 nM; on Human mTOR (FLAG-TOR), 12 nM.

In the case of `CCc1nc(-c2ccc(NC(=O)Nc3ccc(C(=O)N4CCC(c5ccccc5)CC4)cc3)cc2)nc(N2CCOCC2)n1` [Example 320, 1-[4-(4-ethyl-6-morpholin-4-yl-1,3,5-triazin-2-yl)phenyl]-3-{4-[(4-phenylpiperidin-1-yl)carbonyl]phenyl}urea], the IC50 is 25 nM at PI3K-γ; 3.3 nM at PI3K-α; 32.3 nM in test [1]; 73.7 nM in test [2]; 12.9 nM on Human mTOR (FLAG-TOR).

In the case of `CCc1nc(-c2ccc(NC(=O)Nc3ccc(C(=O)NCc4ccncc4)cc3)cc2)nc(N2CCOCC2)n1` [Example 321, 4-({[4-(4-ethyl-6-morpholin-4-yl-1,3,5-triazin-2-yl)phenyl]carbamoyl}amino)-N-(pyridin-4-ylmethyl)benzamide], the IC50 on PI3K-γ was found to be 116 nM; on PI3K-α, 25 nM; in test [1] it was 106 nM; in test [2], 325 nM; at Human mTOR (FLAG-TOR) it was 16.5 nM.

In the case of `CC(C)Cc1nc(-c2ccc(NC(=O)Nc3ccc(C(=O)N4CCN(C)CC4)cc3)cc2)nc(N2CCOCC2)n1` [Example 322, 1-{4-[(4-methylpiperazin-1-yl)carbonyl]phenyl}-3-{4-[4-(2-methylpropyl)-6-morpholin-4-yl-1,3,5-triazin-2-yl]phenyl}urea], the IC50 at PI3K-γ came to 30 nM; on PI3K-α it was 2.4 nM; in test [1] it was 13 nM; in test [2], 86 nM; at Human mTOR (FLAG-TOR) it was 6 nM.

Consider `CC(C)Cc1nc(-c2ccc(NC(=O)Nc3ccc(C(=O)N(C)CCN(C)C)cc3)cc2)nc(N2CCOCC2)n1` [Example 324, N-[2-(dimethylamino)ethyl]-N-methyl-4-[({4-[4-(2-methylpropyl)-6-morpholin-4-yl-1,3,5-triazin-2-yl]phenyl}carbamoyl)amino]benzamide], for which the half-maximal inhibitory concentration (IC50) on PI3K-γ amounted to 22 nM; at PI3K-α it was 1 nM; in test [1], 4 nM; in test [2] it was 35 nM; on Human mTOR (FLAG-TOR), 5.2 nM.

For the molecule `O=C(Nc1ccc(-c2nc(N3CCOCC3)nc(N3C4CCC3COC4)n2)cc1)Nc1ccnc(-c2cccnc2)c1` [Example 336, 1-(2,3′-bipyridin-4-yl)-3-{4-[4-morpholin-4-yl-6-(3-oxa-8-azabicyclo[3.2.1]oct-8-yl)-1,3,5-triazin-2-yl]phenyl}urea], the IC50 at PI3K-γ was 44 nM; on PI3K-α it was 40 nM; in test [1] it was 56 nM; in test [2] (PC3-mm2 cells), 45 nM; in test [2], 45 nM; at Human mTOR (FLAG-TOR), 3.6 nM and 3.45 nM.

For `Cc1ccc(-c2nc(-c3ccc(NC(=O)Nc4ccc(C(=O)N5CCN(C)CC5)cc4)cc3)nc(N3CCOCC3)n2)cc1` [Example 337, 1-{4-[4-(4-methylphenyl)-6-morpholin-4-yl-1,3,5-triazin-2-yl]phenyl}-3-{4-[(4-methylpiperazin-1-yl)carbonyl]phenyl}urea], the half-maximal inhibitory concentration (IC50) is 98 nM on PI3K-γ; 98.5 nM on PI3K-γ (listed as 533); 7 nM at PI3K-α; 142 nM in test [1] (MDA-MB-361 cells); 142 nM in test [1]; 373 nM in test [2] (PC3-mm2 cells). Besides, the half-inhibitory concentration (IC50) in test [2] is 373 nM; at Human mTOR (FLAG-TOR), 70 nM and 70.5 nM.

For `Cc1ccc(-c2nc(-c3ccc(NC(=O)Nc4ccc(C(=O)N(C)CCN(C)C)cc4)cc3)nc(N3CCOCC3)n2)cc1` [Example 338, N-[2-(dimethylamino)ethyl]-N-methyl-4-[({4-[4-(4-methylphenyl)-6-morpholin-4-yl-1,3,5-triazin-2-yl]phenyl}carbamoyl)amino]benzamide], the IC50 at PI3K-γ amounted to 77 nM; at PI3K-γ (listed as 532), 76.5 nM; on PI3K-α, 3 nM; in test [1], 122 nM; in test [2] (PC3-mm2 cells) it was 266 nM; in test [2], 266 nM. The IC50 on Human mTOR (FLAG-TOR) was 22 nM and 19 nM.

In the case of `CCc1nc(-c2ccc(NC(=O)Nc3ccc(N4CCC(N(C)C)CC4)cc3)cc2)nc(N2CCOCC2)n1` [Example 341, 1-{4-[4-(dimethylamino)piperidin-1-yl]phenyl}-3-[4-(4-ethyl-6-morpholin-4-yl-1,3,5-triazin-2-yl)phenyl]urea], the 50% inhibitory concentration (IC50) at PI3K-γ turned out to be 48 nM; at PI3K-γ (listed as 529), 48.5 nM; at PI3K-α it was 10 nM; on PI3K-α (listed as 529) it was 10.5 nM; in test [1] it was 150 nM; in test [2] (PC3-mm2 cells) it was 237 nM. Also, the 50% inhibitory concentration (IC50) in test [2] was 237 nM; at Human mTOR (FLAG-TOR), 12 nM and 15.5 nM.

Consider `Cc1ccc(-c2nc(-c3ccc(NC(=O)Nc4ccc(C(=O)O)cc4)cc3)nc(N3CCOCC3)n2)cc1` [Example 342, 4-[({4-[4-(4-methylphenyl)-6-morpholin-4-yl-1,3,5-triazin-2-yl]phenyl}carbamoyl)amino]benzoic acid], for which the IC50 turned out to be 127 nM on PI3K-γ; 20 nM at PI3K-α; 20.5 nM at PI3K-α (listed as 527); 1260 nM in test [1] (MDA-MB-361 cells); 1260 nM in test [1]; 2430 nM in test [2] (PC3-mm2 cells). Also, the concentration for half-maximal inhibition (IC50) is 2430 nM in test [2]; 6.6 nM and 9.3 nM on Human mTOR (FLAG-TOR).

Regarding `CN(C)C1CCN(c2ccc(NC(=O)Nc3ccc(-c4nc(-c5ccccc5)nc(N5CCOCC5)n4)cc3)cc2)CC1` [Example 345, 1-{4-[4-(dimethylamino)piperidin-1-yl]phenyl}-3-[4-(4-morpholin-4-yl-6-phenyl-1,3,5-triazin-2-yl)phenyl]urea], the IC50 was determined as 112 nM on PI3K-γ; 43 nM on PI3K-α; 43.5 nM on PI3K-α (listed as 535); 554 nM in test [1]; 395 nM in test [2] (PC3-mm2 cells); 395 nM in test [2]. Besides, on Human mTOR (FLAG-TOR), the half-maximal inhibitory concentration (IC50) is 80 nM and 81.5 nM.

The record behind these values is patent US20090304692A1, “TRIAZINE COMPOUNDS AS PI3 KINASE AND MTOR INHIBITORS” (Wyeth, priority 2008, published 2009).
